Laboratory results published in the supplement of paper PMC10307832.

Key:
Test in all cases: relative viability (nuclei count vs DMSO), 5 days (fraction); higher = more cells survive
201T = test system: 201T
Summary of the method: (§1)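 Five library-drug doses in √10 steps were combined with a fixed anchor-drug dose, or a single drug was given alone, by pin tool to lung cancer cell lines in 1536-well plates the day after seeding. Nuclei were stained and counted after 5 days. Relative viability is the nuclei count in treated wells over that in vehicle wells, taken as the median of duplicate plates.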

BEN = test system: BEN
Summary of the method: as §1

CAL-12T = test system: CAL-12T
Summary of the method: as §1

HCC-827 = test system: HCC-827
Summary of the method: as §1

HOP-62 = test system: HOP-62
Summary of the method: as §1

LCLC-103H = test system: LCLC-103H
Summary of the method: as §1

LCLC-97TM1 = test system: LCLC-97TM1
Summary of the method: as §1

LXF-289 = test system: LXF-289
Summary of the method: as §1

NCI-H1395 = test system: NCI-H1395
Summary of the method: as §1

NCI-H1437 = test system: NCI-H1437
Summary of the method: as §1

NCI-H1650 = test system: NCI-H1650
Summary of the method: as §1

NCI-H1793 = test system: NCI-H1793
Summary of the method: as §1

NCI-H1944 = test system: NCI-H1944
Summary of the method: as §1

NCI-H2087 = test system: NCI-H2087
Summary of the method: as §1

NCI-H2228 = test system: NCI-H2228
Summary of the method: as §1

NCI-H2405 = test system: NCI-H2405
Summary of the method: as §1

NCI-H3122 = test system: NCI-H3122
Summary of the method: as §1

NCI-H322M = test system: NCI-H322M
Summary of the method: as §1

NCI-H647 = test system: NCI-H647
Summary of the method: as §1

NCI-H727 = test system: NCI-H727
Summary of the method: as §1

RERF-LC-KJ = test system: RERF-LC-KJ
Summary of the method: as §1

SK-LU-1 = test system: SK-LU-1
Summary of the method: as §1

CC1(C)CCC(c2ccc(Cl)cc2)=C(CN2CCN(c3ccc(C(=O)NS(=O)(=O)c4ccc(N[C@H](CCN5CCOCC5)CSc5ccccc5)c(S(=O)(=O)C(F)(F)F)c4)cc3)CC2)C1 [Navitoclax] + COc1cc2c(Oc3ccc(NC(=O)C4(C(=O)Nc5ccc(F)cc5)CC4)cc3F)ccnc2cc1OCCCN1CCOCC1 [Foretinib] (partner 0.25 µM)
relative viability (201T; first compound 0.005 µM): 1.2
relative viability (201T; first compound 0.01581 µM): 1.43
relative viability (201T; first compound 0.05 µM): 1.06
relative viability (201T; first compound 0.1581 µM): 1.12
relative viability (201T; first compound 0.5 µM): 1.03
relative viability (BEN; first compound 0.005 µM): 0.69
relative viability (BEN; first compound 0.01581 µM): 0.664
relative viability (BEN; first compound 0.05 µM): 0.604
relative viability (BEN; first compound 0.1581 µM): 0.719
relative viability (BEN; first compound 0.5 µM): 0.114
relative viability (CAL-12T; first compound 0.005 µM): 1.08
relative viability (CAL-12T; first compound 0.01581 µM): 1.17
relative viability (CAL-12T; first compound 0.05 µM): 1.16
relative viability (CAL-12T; first compound 0.1581 µM): 1.11
relative viability (CAL-12T; first compound 0.5 µM): 1.11
relative viability (HCC-827; first compound 0.005 µM): 0.914
relative viability (HCC-827; first compound 0.01581 µM): 1.05
relative viability (HCC-827; first compound 0.05 µM): 0.832
relative viability (HCC-827; first compound 0.1581 µM): 1.03
relative viability (HCC-827; first compound 0.5 µM): 1.01
relative viability (HOP-62; first compound 0.005 µM): 1.07
relative viability (HOP-62; first compound 0.01581 µM): 1.15
relative viability (HOP-62; first compound 0.05 µM): 1.19
relative viability (HOP-62; first compound 0.1581 µM): 1.02
relative viability (HOP-62; first compound 0.5 µM): 1.02
relative viability (LCLC-103H; first compound 0.005 µM): 0.676
relative viability (LCLC-103H; first compound 0.01581 µM): 0.934
relative viability (LCLC-103H; first compound 0.05 µM): 0.973
relative viability (LCLC-103H; first compound 0.1581 µM): 0.832
relative viability (LCLC-103H; first compound 0.5 µM): 0.81
relative viability (LCLC-97TM1; first compound 0.005 µM): 0.972
relative viability (LCLC-97TM1; first compound 0.01581 µM): 0.984
relative viability (LCLC-97TM1; first compound 0.05 µM): 0.831
relative viability (LCLC-97TM1; first compound 0.1581 µM): 0.985
relative viability (LCLC-97TM1; first compound 0.5 µM): 0.921
relative viability (LXF-289; first compound 0.005 µM): 1.05
relative viability (LXF-289; first compound 0.01581 µM): 0.981
relative viability (LXF-289; first compound 0.05 µM): 0.924
relative viability (LXF-289; first compound 0.1581 µM): 0.93
relative viability (LXF-289; first compound 0.5 µM): 0.966
relative viability (NCI-H1395; first compound 0.005 µM): 1.15
relative viability (NCI-H1395; first compound 0.01581 µM): 1.19
relative viability (NCI-H1395; first compound 0.05 µM): 0.865
relative viability (NCI-H1395; first compound 0.1581 µM): 0.986
relative viability (NCI-H1395; first compound 0.5 µM): 1.12
relative viability (NCI-H1437; first compound 0.005 µM): 1.18
relative viability (NCI-H1437; first compound 0.01581 µM): 1.3
relative viability (NCI-H1437; first compound 0.05 µM): 1.1
relative viability (NCI-H1437; first compound 0.1581 µM): 1.31
relative viability (NCI-H1437; first compound 0.5 µM): 1.27
relative viability (NCI-H1650; first compound 0.005 µM): 1.08
relative viability (NCI-H1650; first compound 0.01581 µM): 1.48
relative viability (NCI-H1650; first compound 0.05 µM): 1.12
relative viability (NCI-H1650; first compound 0.1581 µM): 1.28
relative viability (NCI-H1650; first compound 0.5 µM): 0.953
relative viability (NCI-H1793; first compound 0.005 µM): 0.616
relative viability (NCI-H1793; first compound 0.01581 µM): 0.711
relative viability (NCI-H1793; first compound 0.1581 µM): 0.608
relative viability (NCI-H1793; first compound 0.5 µM): 0.622
relative viability (NCI-H1944; first compound 0.005 µM): 0.872
relative viability (NCI-H1944; first compound 0.01581 µM): 0.945
relative viability (NCI-H1944; first compound 0.05 µM): 0.745
relative viability (NCI-H1944; first compound 0.1581 µM): 0.851
relative viability (NCI-H1944; first compound 0.5 µM): 0.741
relative viability (NCI-H2087; first compound 0.005 µM): 1.07
relative viability (NCI-H2087; first compound 0.01581 µM): 1.08
relative viability (NCI-H2087; first compound 0.1581 µM): 0.953
relative viability (NCI-H2087; first compound 0.5 µM): 1.07
relative viability (NCI-H2228; first compound 0.005 µM): 0.727
relative viability (NCI-H2228; first compound 0.01581 µM): 1.04
relative viability (NCI-H2228; first compound 0.1581 µM): 1.01
relative viability (NCI-H2228; first compound 0.5 µM): 0.85
relative viability (NCI-H2405; first compound 0.005 µM): 1.04
relative viability (NCI-H2405; first compound 0.01581 µM): 1.09
relative viability (NCI-H2405; first compound 0.05 µM): 0.998
relative viability (NCI-H2405; first compound 0.1581 µM): 1.04
relative viability (NCI-H2405; first compound 0.5 µM): 1.05
relative viability (NCI-H3122; first compound 0.005 µM): 0.936
relative viability (NCI-H3122; first compound 0.01581 µM): 1.04
relative viability (NCI-H3122; first compound 0.05 µM): 0.964
relative viability (NCI-H3122; first compound 0.1581 µM): 0.934
relative viability (NCI-H3122; first compound 0.5 µM): 0.966
relative viability (NCI-H322M; first compound 0.005 µM): 1.03
relative viability (NCI-H322M; first compound 0.01581 µM): 1.19
relative viability (NCI-H322M; first compound 0.05 µM): 0.795
relative viability (NCI-H322M; first compound 0.1581 µM): 0.992
relative viability (NCI-H322M; first compound 0.5 µM): 1.1
relative viability (NCI-H647; first compound 0.005 µM): 1.22
relative viability (NCI-H647; first compound 0.01581 µM): 1.38
relative viability (NCI-H647; first compound 0.05 µM): 1.27
relative viability (NCI-H647; first compound 0.1581 µM): 1.24
relative viability (NCI-H647; first compound 0.5 µM): 1.27
relative viability (NCI-H727; first compound 0.005 µM): 1.12
relative viability (NCI-H727; first compound 0.01581 µM): 0.902
relative viability (NCI-H727; first compound 0.1581 µM): 0.829
relative viability (NCI-H727; first compound 0.5 µM): 0.858
relative viability (RERF-LC-KJ; first compound 0.005 µM): 0.841
relative viability (RERF-LC-KJ; first compound 0.01581 µM): 0.896
relative viability (RERF-LC-KJ; first compound 0.05 µM): 0.844
relative viability (RERF-LC-KJ; first compound 0.1581 µM): 0.942
relative viability (RERF-LC-KJ; first compound 0.5 µM): 0.849
relative viability (SK-LU-1; first compound 0.005 µM): 0.928
relative viability (SK-LU-1; first compound 0.01581 µM): 0.954
relative viability (SK-LU-1; first compound 0.05 µM): 0.953
relative viability (SK-LU-1; first compound 0.1581 µM): 0.772
relative viability (SK-LU-1; first compound 0.5 µM): 0.741
